Test results reported in the OligoGym collection.
Where “and” joins values, the source holds several entries; their conditions need not be identical. Identical values can stand only once. After the bases stand the sugars from the 5' end (letter, count) and the backbone: PS all phosphorothioate, else s phosphorothioate and o phosphodiester by linkage. Methylation of C is not given here. e = 2'-O-(2-methoxyethyl) (MOE); k = constrained ethyl (cEt); d = 2'-deoxy (DNA)

Biological target: SOD1
Settings: ASO

Sequence “CATGGACCACCAGTGTGCGG (sugars e5 d10 e5, PS)” has a target mRNA inhibition (HepG2, 5 µM) of 25%.

“CATTTCCACCTTTGCCC (sugars e3 k2 d7 k2 e3, PS)” was tested, and the target mRNA inhibition (HepG2, 3 µM) was 73%.

For “CATTTCTACAGCTAGCA (sugars e3 k2 d7 k2 e3, PS)”, the target mRNA inhibition (HepG2, 3 µM) was 34%.

“CCAAGTGATCATAAATC (sugars e2 k2 d9 k2 e2, PS)” was tested, and the target mRNA inhibition (HepG2, 5 µM) was 48%.

Sequence “CCATACAGGGTTTTTAT (sugars e2 k2 d8 k2 e3, PS)” has a target mRNA inhibition (HepG2, 5 µM) of 13%.

“CCCAAGTCATCTGCTTT (sugars e3 k2 d7 k2 e3, PS)” gave a target mRNA inhibition (HepG2, 3 µM) of 72%.

For “CCCATCTGTGATTTAAG (sugars e2 k2 d8 k2 e3, PS)”, the target mRNA inhibition (HepG2, 5 µM) was 49%.

“CCCCACACCTTCACTGG (sugars e3 k2 d7 k2 e3, PS)” gave a target mRNA inhibition (HepG2, 3 µM) of 14%.

Sequence “CCGAGGACTGCAACGGAAAC (sugars e5 d10 e5, PS)” has a target mRNA inhibition (HepG2, 4 µM) of 29%.

Work on “CCGCGACTACTTTATAG (sugars e3 k2 d7 k2 e3, PS)” yielded a target mRNA inhibition (HepG2, 3 µM) of 5%.

“CCGTCGCCCTTCAGCACGCA (sugars e5 d10 e5, PS)” was tested, and the target mRNA inhibition (A431, 0.12 µM) was 0% and 5%, the target mRNA inhibition (A431, 0.6 µM) was 7% and 0% and the target mRNA inhibition (A431, 3 µM) was 17% and 0% and 7%. For the same sequence, the target mRNA inhibition (HepG2, 0.1875 µM) was 0% and 3% and the target mRNA inhibition (HepG2, 0.222 µM) was 0% and 14%.

Work on “CCTCATAATAAGTGCCA (sugars e2 k2 d8 k2 e3, PS)” yielded a target mRNA inhibition (HepG2, 5 µM) of 29%.

“CCTCATAATAAGTGCCATAC (sugars e5 d10 e5, PS)” showed a target mRNA inhibition (HepG2, 5 µM) of 23%.

Sequence “CCTTCTGCTCGAAATTGATG (sugars e5 d10 e5, PS)” has a target mRNA inhibition (HepG2, 3 µM) of 53%.

Sequence “CCTTTAATGCTTCCCCACAC (sugars e5 d10 e5, PS)” has a target mRNA inhibition (HepG2, 4 µM) of 1%.

For “CGACTACTTTATAGGCC (sugars e3 k2 d7 k2 e3, PS)”, the target mRNA inhibition (HepG2, 3 µM) was 12%.

In the case of “CGATCCCAATTACACCA (sugars e2 k2 d8 k2 e3, PS)”, the target mRNA inhibition (HepG2, 4 µM) is reported as 57%.

“CGATCCCAATTACACCA (sugars e3 k2 d7 k2 e3, PS)” gave a target mRNA inhibition (HepG2, 3 µM) of 12%.

“CGCCCTTCAGCACGCACACG (sugars e5 d10 e5, PS)” gave a target mRNA inhibition (HepG2, 0.1875 µM) of 0%, a target mRNA inhibition (HepG2, 0.75 µM) of 2% and a target mRNA inhibition (HepG2, 3 µM) of 28%. The target mRNA inhibition (HepG2, 4 µM) was 23% and the target mRNA inhibition (HepG2, 12 µM) was 92%.

With “CGTCGCCCTTCAGCACG (sugars e2 k2 d8 k2 e3, PS)” the target mRNA inhibition (HepG2, 4 µM) was 52%.

“CTACAGGTACTTTAAAG (sugars e2 k2 d8 k2 e3, PS)” showed a target mRNA inhibition (HepG2, 5 µM) of 2%.

“CTCACTACAGGTACTTT (sugars e2 k2 d8 k2 e3, PS)” was tested, and the target mRNA inhibition (HepG2, 5 µM) was 40%.

“CTCACTACAGGTACTTTAAA (sugars e5 d10 e5, PS)” gave a target mRNA inhibition (HepG2, 5 µM) of 25%.

With “CTCATAATAAGTGCCAT (sugars e2 k2 d8 k2 e3, PS)” the target mRNA inhibition (HepG2, 5 µM) was 30%.

“CTCCGCGACTACTTTATAGG (sugars e5 d10 e5, PS)” gave a target mRNA inhibition (HepG2, 4 µM) of 27%.

In the case of “CTCCGCGCCTCGCCCACTCT (sugars e5 d10 e5, PS)”, the target mRNA inhibition (HepG2, 4 µM) is reported as 40%.

In the case of “CTCTCTTCATCCTTTGG (sugars e3 k2 d7 k2 e3, PS)”, the target mRNA inhibition (HepG2, 3 µM) is reported as 2%.

For “CTGGCAAAATACAGGTC (sugars e2 k2 d8 k2 e3, PS)”, the target mRNA inhibition (HepG2, 5 µM) was 25%.

With “CTGTATTATCTCCAAACTCA (sugars e5 d10 e5, PS)” the target mRNA inhibition (HepG2, 5 µM) was 32% and 28%.

In the case of “CTTCAATAGACACATCGGCC (sugars e5 d10 e5, PS)”, the target mRNA inhibition (HepG2, 5 µM) is reported as 39% and 16%.

Sequence “CTTCCCCACACCTTCA (sugars kekeddddddddekek, linkages s1 o3 s8 o1 s2)” has a target mRNA inhibition (A431, 0.12 µM) of 0%, a target mRNA inhibition (A431, 0.6 µM) of 8% and a target mRNA inhibition (A431, 3 µM) of 8%. The target mRNA inhibition (A431, 15 µM) was 18%, the target mRNA inhibition (HepG2, 0.222 µM) was 8% and the target mRNA inhibition (HepG2, 0.667 µM) was 14%. For the same sequence, the target mRNA inhibition (HepG2, 2 µM) was 51% and the target mRNA inhibition (HepG2, 6 µM) was 76%.

With “CTTTGGCCCACCGTGTT (sugars e3 k2 d7 k2 e3, PS)” the target mRNA inhibition (HepG2, 3 µM) was 41%.

“CTTTTAATAGCCTCATA (sugars e2 k2 d8 k2 e3, PS)” was tested, and the target mRNA inhibition (HepG2, 5 µM) was 45%.

“CTTTTAATAGCCTCATA (sugars e2 k2 d9 k2 e2, PS)” was tested, and the target mRNA inhibition (HepG2, 5 µM) was 34%.

“GACACATCGGCCACACCATC (sugars e5 d10 e5, PS)” was tested, and the target mRNA inhibition (HepG2, 5 µM) was 45% and 30%.

For “GACCTGCACTGGTACAG (sugars e3 k2 d7 k2 e3, PS)”, the target mRNA inhibition (HepG2, 3 µM) was 7%.

Work on “GACTACGACGCAAACCAGCA (sugars e5 d10 e5, PS)” yielded a target mRNA inhibition (HepG2, 4 µM) of 40%.

In the case of “GACTACTTTATAGGCCAGAC (sugars e5 d10 e5, PS)”, the target mRNA inhibition (HepG2, 4 µM) is reported as 64% and 74% and the target mRNA inhibition (HepG2, 12 µM) is reported as 80%.

In the case of “GAGGACTGCAACGGAAACCC (sugars e5 d10 e5, PS)”, the target mRNA inhibition (HepG2, 4 µM) is reported as 24%.

“GATTACAGTGTTTAATG (sugars e2 k2 d8 k2 e3, PS)” was tested, and the target mRNA inhibition (HepG2, 5 µM) was 54%.

“GATTTAAGTCTGGCAAA (sugars e2 k2 d9 k2 e2, PS)” was tested, and the target mRNA inhibition (HepG2, 5 µM) was 35%.

“GCAATGGTCTCCTGAGAGTG (sugars e5 d10 e5, PS)” gave a target mRNA inhibition (HepG2, 5 µM) of 57%.

In the case of “GCAGGATAACAGATGAG (sugars e3 k2 d7 k2 e3, PS)”, the target mRNA inhibition (HepG2, 0.1875 µM) is reported as 39%, the target mRNA inhibition (HepG2, 0.75 µM) is reported as 60% and the target mRNA inhibition (HepG2, 3 µM) is reported as 58% and 80%. It also gave a target mRNA inhibition (HepG2, 12 µM) of 90%.

In the case of “GCCACGCCGAGGTCCTGGTT (sugars e5 d10 e5, PS)”, the target mRNA inhibition (HepG2, 4 µM) is reported as 38%.

In the case of “GCCCAAGTCTCCAACATGCC (sugars e5 d10 e5, PS)”, the target mRNA inhibition (HepG2, 5 µM) is reported as 61% and 53%.

With “GCCTCAGACTACATCCA (sugars e2 k2 d8 k2 e3, PS)” the target mRNA inhibition (HepG2, 4 µM) was 69%.

Work on “GCCTCATAATAAGTGCC (sugars e2 k2 d9 k2 e2, PS)” yielded a target mRNA inhibition (HepG2, 5 µM) of 33%.

Sequence “GCCTCGCCCACTCTGGCCCC (sugars e5 d10 e5, PS)” has a target mRNA inhibition (HepG2, 4 µM) of 37%.

Work on “GCTAGCAGGATAACAGA (sugars e2 k2 d9 k2 e2, PS)” yielded a target mRNA inhibition (HepG2, 4 µM) of 43%.

“GCTAGCAGGATAACAGA (sugars e3 k2 d7 k2 e3, PS)” was tested, and the target mRNA inhibition (HepG2, 3 µM) was 10%.

Work on “GCTTCCCCACACCTTCAC (sugars e5 d8 e5, linkages s1 o3 s9 o2 s2)” yielded a target mRNA inhibition (A431, 0.12 µM) of 0%, a target mRNA inhibition (A431, 0.6 µM) of 1% and a target mRNA inhibition (A431, 3 µM) of 0%. It also gave a target mRNA inhibition (A431, 15 µM) of 5%, a target mRNA inhibition (HepG2, 0.222 µM) of 8% and a target mRNA inhibition (HepG2, 0.667 µM) of 29%. It also gave a target mRNA inhibition (HepG2, 2 µM) of 46% and a target mRNA inhibition (HepG2, 6 µM) of 76%.

Sequence “GGAATCCATGCAGGCCT (sugars e3 k2 d7 k2 e3, PS)” has a target mRNA inhibition (HepG2, 3 µM) of 7%.

For “GGACCTGCACTGGTACA (sugars e3 k2 d7 k2 e3, PS)”, the target mRNA inhibition (HepG2, 3 µM) was 7%.

“GGATACATTTCTACAG (sugars kekeddddddddekek, linkages s1 o3 s8 o1 s2)” was tested, and the target mRNA inhibition (A431, 0.12 µM) was 0%, the target mRNA inhibition (A431, 0.6 µM) was 0% and the target mRNA inhibition (A431, 3 µM) was 0%. The target mRNA inhibition (A431, 15 µM) was 14%.

With “GGATACATTTCTACAGC (sugars e2 k2 d9 k2 e2, PS)” the target mRNA inhibition (HepG2, 0.1875 µM) was 44%, the target mRNA inhibition (HepG2, 0.75 µM) was 67% and the target mRNA inhibition (HepG2, 3 µM) was 89%. It also gave a target mRNA inhibition (HepG2, 4 µM) of 84% and a target mRNA inhibition (HepG2, 12 µM) of 94%.

Sequence “GGATACATTTCTACAGC (sugars e4 k1 d8 k1 e3, linkages s1 o3 s9 o1 s2)” has a target mRNA inhibition (A431, 0.062 µM) of 8%, a target mRNA inhibition (A431, 0.185 µM) of 7% and a target mRNA inhibition (A431, 0.556 µM) of 30%. For the same sequence, the target mRNA inhibition (A431, 1.667 µM) was 33%, the target mRNA inhibition (A431, 5 µM) was 66% and the target mRNA inhibition (A431, 15 µM) was 59%. For the same sequence, the target mRNA inhibition (SH-SY5Y, 0.062 µM) was 9%, the target mRNA inhibition (SH-SY5Y, 0.185 µM) was 0% and the target mRNA inhibition (SH-SY5Y, 0.556 µM) was 12%. For the same sequence, the target mRNA inhibition (SH-SY5Y, 1.667 µM) was 33%, the target mRNA inhibition (SH-SY5Y, 5 µM) was 65% and the target mRNA inhibition (SH-SY5Y, 15 µM) was 76%.
